Test results from patent publication US10266537B2, “3-acetylenyl-pyrazole-pyrimidine derivative, and preparation method therefor and uses thereof” (Si Chuan University, priority 2015, dated 2019).
Where two headings read alike, the source gives them in different places.

Tests used:
KDR = KDR (Homo sapiens (Human), UniProt P35968); experiment: Kinase inhibition assay (KinaseProfiler, 33P-ATP); format: biochemical; conditions: for remaining activity at 10 µM: KDR(h), compound at 10 μM, read-out: The percentage of the remaining active protein; for IC50: KDR, ATP at Km
KDR, sequence (P35968 20-1356): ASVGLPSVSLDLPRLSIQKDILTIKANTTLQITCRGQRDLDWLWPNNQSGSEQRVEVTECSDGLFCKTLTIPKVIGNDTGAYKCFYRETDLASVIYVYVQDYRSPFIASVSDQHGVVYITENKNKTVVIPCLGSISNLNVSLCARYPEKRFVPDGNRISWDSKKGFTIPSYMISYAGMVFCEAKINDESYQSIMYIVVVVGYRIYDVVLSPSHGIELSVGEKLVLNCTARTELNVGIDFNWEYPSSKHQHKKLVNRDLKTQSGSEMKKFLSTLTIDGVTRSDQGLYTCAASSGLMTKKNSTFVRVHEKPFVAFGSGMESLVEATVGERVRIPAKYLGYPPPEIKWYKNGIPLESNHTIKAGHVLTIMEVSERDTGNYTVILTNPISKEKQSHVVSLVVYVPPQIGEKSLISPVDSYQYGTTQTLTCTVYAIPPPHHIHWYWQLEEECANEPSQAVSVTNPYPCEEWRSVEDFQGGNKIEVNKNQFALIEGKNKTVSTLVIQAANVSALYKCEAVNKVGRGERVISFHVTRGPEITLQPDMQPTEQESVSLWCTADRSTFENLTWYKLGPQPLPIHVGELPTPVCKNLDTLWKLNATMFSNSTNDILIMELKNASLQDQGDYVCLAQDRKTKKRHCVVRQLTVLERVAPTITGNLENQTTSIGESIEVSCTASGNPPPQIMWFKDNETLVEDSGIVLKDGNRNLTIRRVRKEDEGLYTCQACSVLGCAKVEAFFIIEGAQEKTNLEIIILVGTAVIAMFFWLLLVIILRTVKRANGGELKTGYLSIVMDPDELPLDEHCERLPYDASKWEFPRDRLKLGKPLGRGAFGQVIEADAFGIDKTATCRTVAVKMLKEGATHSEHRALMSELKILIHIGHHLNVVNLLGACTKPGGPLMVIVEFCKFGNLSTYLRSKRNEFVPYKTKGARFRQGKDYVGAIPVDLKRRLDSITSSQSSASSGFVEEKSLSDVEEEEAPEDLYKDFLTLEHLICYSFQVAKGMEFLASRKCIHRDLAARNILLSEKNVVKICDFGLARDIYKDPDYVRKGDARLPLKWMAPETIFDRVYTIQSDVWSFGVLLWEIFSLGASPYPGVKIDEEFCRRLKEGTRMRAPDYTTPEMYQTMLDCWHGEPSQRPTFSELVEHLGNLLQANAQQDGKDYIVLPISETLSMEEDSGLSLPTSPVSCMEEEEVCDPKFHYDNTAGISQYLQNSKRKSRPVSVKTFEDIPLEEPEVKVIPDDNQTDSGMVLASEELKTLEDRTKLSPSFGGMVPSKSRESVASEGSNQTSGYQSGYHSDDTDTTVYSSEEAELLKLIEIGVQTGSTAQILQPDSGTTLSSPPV

CHK1(h) = CHK1(h) (Homo sapiens (Human), UniProt O14757); experiment: Kinase inhibition assay (KinaseProfiler, 33P-ATP); format: biochemical; conditions: compound at 10 μM, read-out: The percentage of the remaining active protein
A549 = experiment: Cell proliferation inhibition assay (MTT); format: cell-based; conditions: Homo sapiens, read-out: Proliferation inhibitory activity IC50
Protocol: (§1) The cells were seeded in 96-well plates with 200 μL of cell suspension per well and incubated overnight in a cell culture medium with a cell concentration of 1 2×10^4 cells/mL. The next day, the supernatant was discarded (the suspension cell was centrifuged before it) and the cells were treated with gradient concentrations of the test compound, respectively. […] After 72 hours, add 20 μL of MTT reagent at a concentration of 5 mg/mL per well. After incubation for 2-4 h, the supernatant was discarded and 150 μL of DMSO was added to each well. […] Relative cell proliferation inhibition rate=([MUT]-[MUT])×100%/[MUT]. The experiment was repeated at least 3 times. Experimental data were expressed as mean, data statistics using t test, P<0.05 for the difference was statistically significant.

FGFR1 = FGFR1 (Homo sapiens (Human), UniProt P11362); experiment: Kinase inhibition assay (KinaseProfiler, 33P-ATP); format: biochemical
MDA-MB-435 = experiment: Cell proliferation inhibition assay (MTT); format: cell-based, human
Protocol: The remaining cell lines were cultured in DMEM complete medium containing 10% fetal bovine serum (MV4-11 cells 20%), 100 U/ml penicillin, 100 μg/mL streptomycin at 5% CO2, and 37° C.
The cells were seeded in 96-well plates with 200 μL of cell suspension per well and incubated overnight in a cell culture medium with a cell concentration of 1˜2×10^4 cells/mL. The next day, the supernatant was discarded (the suspension cell was centrifuged before it) and the cells were treated with gradient concentrations of the test compound, respectively. At the same time, the drug-free negative control group and the equal volume of solvent control group, DMSO concentration of 0.1%, each dose group set up three wells, 37° C., 5% CO2 conditions. After 72 hours, add 20 μL of MTT reagent at a concentration of 5 mg/mL per well. After incubation for 2-4 h, the supernatant was discarded and 150 μL of DMSO was added to each well. […] Determine the absorbance (A) value (λ=570 nm, A value is proportional to the number of living cells), whichever is the average. […] The experiment was repeated at least 3 times. Experimental data were expressed as mean, data statistics using t test, P<0.05 for the difference was statistically significant. The inhibitory effects of the following compounds on cell proliferation were expressed as IC50 or inhibition rates.

c-RAF = c-RAF (Homo sapiens (Human), UniProt P04049); experiment: Kinase inhibition assay (KinaseProfiler, 33P-ATP); format: biochemical; conditions: for remaining activity at 10 µM: c-RAF(h), compound at 10 μM, read-out: The percentage of the remaining active protein
Lyn = Lyn (Homo sapiens (Human), UniProt P07948); experiment: Kinase inhibition assay (KinaseProfiler, 33P-ATP); format: biochemical; conditions: Lyn(h); compound at 10 μM; read-out: The percentage of the remaining active protein
c-Src(1-530) = c-Src(1-530) (Homo sapiens (Human), UniProt P12931); experiment: Kinase inhibition assay (KinaseProfiler, 33P-ATP); conditions: for IC50: c-Src(1-530), ATP at Km
c-Src(1-530), sequence (P12931 whole entry, looked up): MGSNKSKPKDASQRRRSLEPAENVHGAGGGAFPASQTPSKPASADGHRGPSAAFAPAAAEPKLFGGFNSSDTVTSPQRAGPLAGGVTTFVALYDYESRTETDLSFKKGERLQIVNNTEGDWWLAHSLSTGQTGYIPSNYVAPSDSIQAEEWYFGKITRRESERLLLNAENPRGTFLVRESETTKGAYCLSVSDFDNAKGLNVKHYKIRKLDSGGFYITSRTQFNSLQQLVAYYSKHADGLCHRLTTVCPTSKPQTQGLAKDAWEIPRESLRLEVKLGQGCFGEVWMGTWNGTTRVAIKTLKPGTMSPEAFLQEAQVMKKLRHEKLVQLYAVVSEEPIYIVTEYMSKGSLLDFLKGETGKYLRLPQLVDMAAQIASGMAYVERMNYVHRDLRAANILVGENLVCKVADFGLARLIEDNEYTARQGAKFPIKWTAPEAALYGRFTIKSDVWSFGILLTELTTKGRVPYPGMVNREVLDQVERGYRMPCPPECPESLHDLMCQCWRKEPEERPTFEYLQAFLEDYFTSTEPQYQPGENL

EphB4 = EphB4 (Homo sapiens (Human), UniProt P54760); experiment: Kinase inhibition assay (KinaseProfiler, 33P-ATP); format: biochemical; conditions: EphB4; ATP at Km
Yes = Yes (Homo sapiens (Human), UniProt P07947); experiment: Kinase inhibition assay (KinaseProfiler, 33P-ATP); format: biochemical; conditions: for remaining activity at 10 µM: Yes(h), compound at 10 μM, read-out: The percentage of the remaining active protein; for IC50: Yes, ATP at Km
Yes, sequence (P07947 whole entry): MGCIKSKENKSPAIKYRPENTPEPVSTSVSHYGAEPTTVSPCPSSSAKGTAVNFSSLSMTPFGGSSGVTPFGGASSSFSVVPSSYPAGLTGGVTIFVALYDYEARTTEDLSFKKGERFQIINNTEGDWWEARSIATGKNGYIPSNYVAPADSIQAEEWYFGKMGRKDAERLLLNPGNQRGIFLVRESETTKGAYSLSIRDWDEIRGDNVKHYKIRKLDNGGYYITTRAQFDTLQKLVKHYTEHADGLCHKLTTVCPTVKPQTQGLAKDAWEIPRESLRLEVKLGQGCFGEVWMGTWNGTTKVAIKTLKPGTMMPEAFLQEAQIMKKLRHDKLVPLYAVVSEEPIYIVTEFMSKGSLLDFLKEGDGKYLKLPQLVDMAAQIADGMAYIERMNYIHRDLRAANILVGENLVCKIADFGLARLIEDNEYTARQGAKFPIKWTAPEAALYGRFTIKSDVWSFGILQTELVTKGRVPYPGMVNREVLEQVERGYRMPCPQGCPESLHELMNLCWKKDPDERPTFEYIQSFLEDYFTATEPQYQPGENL

PKA(h) = PKA(h) (Homo sapiens (Human), UniProt P17612); experiment: Kinase inhibition assay (KinaseProfiler, 33P-ATP); format: biochemical; conditions: compound at 10 μM, read-out: The percentage of the remaining active protein
PDGFRα = PDGFRα (Homo sapiens (Human), UniProt P16234); experiment: Kinase inhibition assay (KinaseProfiler, 33P-ATP); format: biochemical; conditions: for remaining activity at 10 µM: PDGFRα(h), compound at 10 μM, read-out: The percentage of the remaining active protein; for IC50: PDGFRα, ATP at Km
PDGFRα, sequence (P16234 24-1089): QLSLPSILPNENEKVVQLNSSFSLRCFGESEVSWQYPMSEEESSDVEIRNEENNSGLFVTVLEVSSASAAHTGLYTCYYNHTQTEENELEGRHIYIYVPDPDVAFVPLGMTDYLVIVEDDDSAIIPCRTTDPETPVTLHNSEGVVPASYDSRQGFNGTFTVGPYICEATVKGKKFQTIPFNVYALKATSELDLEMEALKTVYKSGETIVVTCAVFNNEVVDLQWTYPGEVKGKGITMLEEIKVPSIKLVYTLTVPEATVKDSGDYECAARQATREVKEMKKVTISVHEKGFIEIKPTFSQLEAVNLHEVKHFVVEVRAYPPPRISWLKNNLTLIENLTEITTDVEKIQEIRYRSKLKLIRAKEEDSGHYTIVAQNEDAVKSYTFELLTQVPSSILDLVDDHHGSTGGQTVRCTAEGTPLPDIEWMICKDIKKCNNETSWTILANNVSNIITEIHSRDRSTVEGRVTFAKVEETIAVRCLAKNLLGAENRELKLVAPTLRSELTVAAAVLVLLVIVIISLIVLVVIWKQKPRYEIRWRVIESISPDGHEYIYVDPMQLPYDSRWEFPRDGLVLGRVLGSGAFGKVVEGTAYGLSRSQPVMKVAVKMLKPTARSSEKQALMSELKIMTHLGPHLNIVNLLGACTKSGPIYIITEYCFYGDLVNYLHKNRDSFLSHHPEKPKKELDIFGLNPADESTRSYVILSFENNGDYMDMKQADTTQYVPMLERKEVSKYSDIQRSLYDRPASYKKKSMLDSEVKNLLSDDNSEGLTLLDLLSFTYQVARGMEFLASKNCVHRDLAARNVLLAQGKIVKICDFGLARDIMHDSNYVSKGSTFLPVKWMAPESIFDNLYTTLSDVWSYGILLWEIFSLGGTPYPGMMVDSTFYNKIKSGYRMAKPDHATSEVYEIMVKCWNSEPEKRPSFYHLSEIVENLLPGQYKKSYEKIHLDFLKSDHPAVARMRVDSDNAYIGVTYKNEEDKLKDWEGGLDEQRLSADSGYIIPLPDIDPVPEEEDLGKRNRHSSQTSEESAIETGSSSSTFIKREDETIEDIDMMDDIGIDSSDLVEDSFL

EGFR = EGFR (Homo sapiens (Human), UniProt P00533); experiment: Kinase inhibition assay (KinaseProfiler, 33P-ATP); format: biochemical; conditions: for remaining activity at 10 µM: EGFR(h), compound at 10 μM, read-out: The percentage of the remaining active protein
RIPK2(h) = RIPK2(h) (Homo sapiens (Human), UniProt O43353); experiment: Kinase inhibition assay (KinaseProfiler, 33P-ATP); format: biochemical; conditions: compound at 10 μM, read-out: The percentage of the remaining active protein
CDK7 = CDK7 (Homo sapiens (Human), UniProt P50613); experiment: Kinase inhibition assay (KinaseProfiler, 33P-ATP); format: biochemical; conditions: CDK7; compound at 10 μM; read-out: The percentage of the remaining active protein
B-Raf = B-Raf (Homo sapiens (Human), UniProt P15056); experiment: Kinase inhibition assay (KinaseProfiler, 33P-ATP); conditions: for IC50: B-Raf, ATP at Km; for remaining activity at 10 µM: read-out: The percentage of the remaining active protein
B-Raf, sequence (P15056 whole entry): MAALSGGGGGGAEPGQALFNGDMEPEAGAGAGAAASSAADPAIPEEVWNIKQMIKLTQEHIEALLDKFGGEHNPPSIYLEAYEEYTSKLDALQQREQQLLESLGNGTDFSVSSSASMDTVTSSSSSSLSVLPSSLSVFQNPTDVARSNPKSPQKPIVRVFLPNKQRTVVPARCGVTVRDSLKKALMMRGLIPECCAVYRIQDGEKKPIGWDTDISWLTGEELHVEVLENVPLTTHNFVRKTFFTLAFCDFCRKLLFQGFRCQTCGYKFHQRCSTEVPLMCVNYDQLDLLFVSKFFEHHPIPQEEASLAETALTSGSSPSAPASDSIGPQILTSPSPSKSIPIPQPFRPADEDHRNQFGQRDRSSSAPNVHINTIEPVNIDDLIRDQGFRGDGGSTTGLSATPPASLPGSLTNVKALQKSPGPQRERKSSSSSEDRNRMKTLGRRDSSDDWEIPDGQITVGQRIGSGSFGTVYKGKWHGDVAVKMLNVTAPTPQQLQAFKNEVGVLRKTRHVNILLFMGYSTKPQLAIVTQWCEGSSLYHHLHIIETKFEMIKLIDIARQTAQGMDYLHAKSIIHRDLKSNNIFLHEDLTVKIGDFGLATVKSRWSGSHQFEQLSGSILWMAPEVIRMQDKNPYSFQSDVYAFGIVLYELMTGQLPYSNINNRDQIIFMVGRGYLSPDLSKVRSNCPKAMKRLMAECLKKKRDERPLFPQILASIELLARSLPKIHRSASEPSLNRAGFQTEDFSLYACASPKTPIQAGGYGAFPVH

IKKβ = IKKβ (Homo sapiens (Human), UniProt O14920); experiment: Kinase inhibition assay (KinaseProfiler, 33P-ATP); format: biochemical
Pim-1(h) = Pim-1(h) (Homo sapiens (Human), UniProt P11309); experiment: Kinase inhibition assay (KinaseProfiler, 33P-ATP); format: biochemical; conditions: compound at 10 μM, read-out: The percentage of the remaining active protein
EphB2 = EphB2 (Homo sapiens (Human), UniProt P29323); experiment: Kinase inhibition assay (KinaseProfiler, 33P-ATP); format: biochemical; conditions: for remaining activity at 10 µM: EphB2(h), compound at 10 μM, read-out: The percentage of the remaining active protein
ErbB2 = ErbB2 (Homo sapiens (Human), UniProt P04626); experiment: Kinase inhibition assay (KinaseProfiler, 33P-ATP); format: biochemical; conditions: for remaining activity at 10 µM: ErbB2(h), compound at 10 μM, read-out: The percentage of the remaining active protein
Bmx = Bmx (Homo sapiens (Human), UniProt P51813); experiment: Kinase inhibition assay (KinaseProfiler, 33P-ATP); conditions: for remaining activity at 10 µM: read-out: The percentage of the remaining active protein
Bmx, sequence (P51813 whole entry): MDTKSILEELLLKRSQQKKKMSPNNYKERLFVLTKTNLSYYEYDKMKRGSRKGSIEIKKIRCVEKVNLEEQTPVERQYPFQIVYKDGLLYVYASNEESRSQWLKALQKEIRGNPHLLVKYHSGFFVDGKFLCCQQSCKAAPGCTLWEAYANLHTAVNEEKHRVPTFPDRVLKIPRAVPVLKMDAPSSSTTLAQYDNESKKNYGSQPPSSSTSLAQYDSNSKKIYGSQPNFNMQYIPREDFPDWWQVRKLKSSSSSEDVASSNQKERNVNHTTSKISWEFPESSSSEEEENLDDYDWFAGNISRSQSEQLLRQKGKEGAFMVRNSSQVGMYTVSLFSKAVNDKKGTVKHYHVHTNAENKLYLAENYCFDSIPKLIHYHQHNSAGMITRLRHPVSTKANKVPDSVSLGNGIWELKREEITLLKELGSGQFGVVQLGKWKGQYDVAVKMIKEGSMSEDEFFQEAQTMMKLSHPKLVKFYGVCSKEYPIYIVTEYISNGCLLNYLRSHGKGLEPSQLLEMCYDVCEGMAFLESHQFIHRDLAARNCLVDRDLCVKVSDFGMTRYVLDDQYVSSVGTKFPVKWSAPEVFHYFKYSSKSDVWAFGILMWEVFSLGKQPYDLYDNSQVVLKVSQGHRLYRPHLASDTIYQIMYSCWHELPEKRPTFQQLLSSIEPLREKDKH

mTOR(h) = mTOR(h) (Homo sapiens (Human), UniProt P42345); experiment: Kinase inhibition assay (KinaseProfiler, 33P-ATP); format: biochemical; conditions: compound at 10 μM, read-out: The percentage of the remaining active protein
JNK1α1(h) = JNK1α1(h) (Homo sapiens (Human), UniProt P45983); experiment: Kinase inhibition assay (KinaseProfiler, 33P-ATP); format: biochemical; conditions: compound at 10 μM, read-out: The percentage of the remaining active protein
TBK1(h) = TBK1(h) (Homo sapiens (Human), UniProt Q9UHD2); experiment: Kinase inhibition assay (KinaseProfiler, 33P-ATP); format: biochemical; conditions: compound at 10 μM, read-out: The percentage of the remaining active protein
HT29 = experiment: Cell proliferation inhibition assay (MTT); format: cell-based; conditions: Homo sapiens, read-out: Proliferation inhibitory activity IC50
Protocol: as §1

[1] = test system: breast cancer cell line MDA-MB-231; format: in vivo
Protocol: When the tumors grew to volumes of 200 mm^3, all the mice were randomized into groups (6 mice for each group) and dosed with indicated compounds.
Observation indexes: mouse body weight and the tumor size were measured once every three days, the tumor volume is calculated (length×width^2×0.5).

c-Src(T341M) = c-Src(T341M) (Homo sapiens (Human), UniProt P12931, T341M); experiment: Kinase inhibition assay (KinaseProfiler, 33P-ATP); format: biochemical; conditions: c-Src(T341M); ATP at Km
TrkA = TrkA (Homo sapiens (Human), UniProt P04629); experiment: Kinase inhibition assay (KinaseProfiler, 33P-ATP); format: biochemical; conditions: TrkA(h); compound at 10 μM; read-out: The percentage of the remaining active protein
ALK(h) = ALK(h) (Homo sapiens (Human), UniProt Q9UM73); experiment: Kinase inhibition assay (KinaseProfiler, 33P-ATP); format: biochemical; conditions: compound at 10 μM, read-out: The percentage of the remaining active protein
PKBα(h) = PKBα(h) (Homo sapiens (Human), UniProt P31749); experiment: Kinase inhibition assay (KinaseProfiler, 33P-ATP); format: biochemical; conditions: compound at 10 μM, read-out: The percentage of the remaining active protein

CCn1nc(C#Cc2cc(C(=O)Nc3ccc(CN4CCN(C)CC4)c(C(F)(F)F)c3)ccc2C)c2c(N)ncnc21 [Compound 3]
remaining activity at 10 µM (KDR): 2%
IC50 (KDR): 17 nM
remaining activity at 10 µM (CHK1(h)): 91%
IC50 (A549; A549, 72 h): 199 nM
IC50 (FGFR1; FGFR1, ATP at Km): 3 nM
IC50 (MDA-MB-435; Homo sapiens, MDA-MB-435, 72 h, read-out: Proliferation inhibitory activity IC50): 8.65 nM
IC50 (MDA-MB-435; read-out: Proliferative inhibitory activity MDA-MB-435 (IC50 class)): < 100 nM
remaining activity at 10 µM (c-RAF): 5%
remaining activity at 10 µM (Lyn): 0%
IC50 (c-Src(1-530)): < 1 nM
IC50 (EphB4): 23 nM
remaining activity at 10 µM (Yes): 0%
IC50 (Yes): < 1 nM
remaining activity at 10 µM (PKA(h)): 17%
remaining activity at 10 µM (PDGFRα): 5%
IC50 (PDGFRα): 890 nM
remaining activity at 10 µM (EGFR): 30%
IC50 (EGFR; EGFR, ATP at Km): 3520 nM
remaining activity at 10 µM (RIPK2(h)): 3%
remaining activity at 10 µM (CDK7): 70%
IC50 (B-Raf): 92 nM
remaining activity at 10 µM (B-Raf): 5%
IC50 (IKKβ; IKKβ, ATP at Km): 164 nM
remaining activity at 10 µM (Pim-1(h)): 46%
remaining activity at 10 µM (EphB2): 0%
remaining activity at 10 µM (ErbB2): 3%
IC50 (Bmx): 6 nM
remaining activity at 10 µM (Bmx): 0%
remaining activity at 10 µM (mTOR(h)): 96%
remaining activity at 10 µM (JNK1α1(h)): 66%
remaining activity at 10 µM (TBK1(h)): 75%
IC50 (HT29; HT-29, 72 h): 166 nM
inhibitory effect compared to positive control ([1]; mouse, in vivo): better than the positive control (paclitaxel)
tumor growth inhibition ([1]; mouse, in vivo): significantly inhibited
IC50 (c-Src(T341M)): 30 nM
remaining activity at 10 µM (TrkA): -2%
remaining activity at 10 µM (ALK(h)): 27%
remaining activity at 10 µM (PKBα(h)): 73%

Cc1ccc(NC(=O)c2cccc(C(F)(F)F)c2)cc1C#Cc1nn(C2CCN(C)CC2)c2ncnc(N)c12 [Compound 31]
remaining activity at 10 µM (KDR): 3%
IC50 (KDR): 12 nM
remaining activity at 10 µM (CHK1(h)): 100%
IC50 (A549; A549, MTT, 72 hours): 1420 nM
remaining activity at 10 µM (FGFR1; FGFR1(h), compound at 10 μM, read-out: The percentage of the remaining active protein): 0%
IC50 (MDA-MB-435; Homo sapiens, MDA-MB-435, MTT, 72 hours, read-out: Proliferation inhibitory activity IC50): 14.7 nM
IC50 (MDA-MB-435; Homo sapiens, MDA-MB-435, MTT, 72 hours, read-out: Proliferative inhibitory activity MDA-MB-435 (IC50 class)): < 100 nM
remaining activity at 10 µM (c-RAF): 2%
IC50 (c-RAF; c-RAF, ATP at Km): 19 nM
remaining activity at 10 µM (Lyn): 0%
IC50 (c-Src(1-530)): 2 nM
remaining activity at 10 µM (c-Src(1-530); read-out: The percentage of the remaining active protein): 0%
IC50 (EphB4): 11 nM
remaining activity at 10 µM (Yes): 0%
IC50 (Yes): < 1 nM
remaining activity at 10 µM (PKA(h)): 58%
remaining activity at 10 µM (PDGFRα): 3%
IC50 (PDGFRα): 396 nM
remaining activity at 10 µM (EGFR): 15%
remaining activity at 10 µM (RIPK2(h)): 15%
remaining activity at 10 µM (CDK7): 70%
IC50 (B-Raf): 22 nM
remaining activity at 10 µM (B-Raf): 1%
remaining activity at 10 µM (IKKβ; IKKβ(h), compound at 10 μM, read-out: The percentage of the remaining active protein): 42%
remaining activity at 10 µM (Pim-1(h)): 34%
remaining activity at 10 µM (EphB2): -1%
IC50 (EphB2; EphB2, ATP at Km): 10 nM
remaining activity at 10 µM (ErbB2): 2%
IC50 (ErbB2; ErbB2, ATP at Km): 251 nM
IC50 (Bmx): 18 nM
remaining activity at 10 µM (Bmx): 0%
remaining activity at 10 µM (mTOR(h)): 81%
remaining activity at 10 µM (JNK1α1(h)): 36%
remaining activity at 10 µM (TBK1(h)): 83%
IC50 (HT29; HT-29, HT29, MTT, 72 hours): 350 nM
tumor growth inhibition ([1]; MDA-MB-231 subcutaneous tumor, nude mice, 20 mg/kg per day, oral): significantly inhibit tumor growth
inhibitory effect compared to positive control ([1]; MDA-MB-231 subcutaneous tumor, nude mice, vs paclitaxel 10 mg/kg per week tail vein, dasatinib 40 mg/kg daily oral): superior inhibitory effect compared to positive control (paclitaxel and dasatinib)
toxicity / side effects (weight loss, rash, diarrhea) during administration ([1]; nude mice, test dose range, daily oral): low toxicity
IC50 (c-Src(T341M)): 3730 nM
remaining activity at 10 µM (TrkA): 14%
remaining activity at 10 µM (ALK(h)): 33%
remaining activity at 10 µM (PKBα(h)): 56%
